Two molecules from paper PMC9950447, “Targeting USP10 induces degradation of oncogenic ANLN in esophageal squamous cell carcinoma” (Cell Death and Differentiation, 2022) can be followed below.

One assay deals with T1, USP10 (Homo sapiens, UniProt Q14694).
T1 construct: His-USP10
Briefly: SPR (Biacore T200, His-USP10 immobilized on CM5 chip); supported by Ub-AMC inhibition of purified USP10 (IC50 […]). The format is binding.

A further assay deals with recombinant GST-USP10 (human, UniProt Q14694-3 1-802). Put plainly: pull-down; in vitro GST pull down: GST-tagged protein bound to GST Bind Resin in GST lysis buffer, His-tagged proteins added, 4 °C for 4 h, six washes with PBST, western blot. The conditions noted are these: both partners purified.
Sequence of recombinant GST-USP10 (Q14694 other isoform, or with tags, fused parts or gaps): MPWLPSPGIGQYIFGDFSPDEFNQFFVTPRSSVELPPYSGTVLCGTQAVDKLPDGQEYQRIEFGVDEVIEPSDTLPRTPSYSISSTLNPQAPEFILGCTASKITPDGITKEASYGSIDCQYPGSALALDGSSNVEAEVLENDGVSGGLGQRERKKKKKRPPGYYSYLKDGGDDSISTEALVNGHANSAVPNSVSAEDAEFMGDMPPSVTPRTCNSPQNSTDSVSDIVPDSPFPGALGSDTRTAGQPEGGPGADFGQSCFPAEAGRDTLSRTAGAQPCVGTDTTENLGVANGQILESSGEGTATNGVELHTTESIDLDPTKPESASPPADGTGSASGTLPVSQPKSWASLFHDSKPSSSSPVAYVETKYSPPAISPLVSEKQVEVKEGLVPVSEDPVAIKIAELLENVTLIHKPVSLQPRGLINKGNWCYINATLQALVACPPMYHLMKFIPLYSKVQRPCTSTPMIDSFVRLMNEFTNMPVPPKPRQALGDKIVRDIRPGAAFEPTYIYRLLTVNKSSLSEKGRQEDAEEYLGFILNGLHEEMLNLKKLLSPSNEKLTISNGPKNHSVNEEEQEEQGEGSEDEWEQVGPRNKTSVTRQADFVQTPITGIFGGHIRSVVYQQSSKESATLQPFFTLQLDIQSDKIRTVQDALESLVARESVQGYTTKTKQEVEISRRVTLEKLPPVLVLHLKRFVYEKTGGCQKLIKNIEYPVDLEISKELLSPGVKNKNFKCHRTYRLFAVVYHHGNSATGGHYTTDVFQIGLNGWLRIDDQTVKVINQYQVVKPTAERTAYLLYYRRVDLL

T1 sequence (Q14694 2-798): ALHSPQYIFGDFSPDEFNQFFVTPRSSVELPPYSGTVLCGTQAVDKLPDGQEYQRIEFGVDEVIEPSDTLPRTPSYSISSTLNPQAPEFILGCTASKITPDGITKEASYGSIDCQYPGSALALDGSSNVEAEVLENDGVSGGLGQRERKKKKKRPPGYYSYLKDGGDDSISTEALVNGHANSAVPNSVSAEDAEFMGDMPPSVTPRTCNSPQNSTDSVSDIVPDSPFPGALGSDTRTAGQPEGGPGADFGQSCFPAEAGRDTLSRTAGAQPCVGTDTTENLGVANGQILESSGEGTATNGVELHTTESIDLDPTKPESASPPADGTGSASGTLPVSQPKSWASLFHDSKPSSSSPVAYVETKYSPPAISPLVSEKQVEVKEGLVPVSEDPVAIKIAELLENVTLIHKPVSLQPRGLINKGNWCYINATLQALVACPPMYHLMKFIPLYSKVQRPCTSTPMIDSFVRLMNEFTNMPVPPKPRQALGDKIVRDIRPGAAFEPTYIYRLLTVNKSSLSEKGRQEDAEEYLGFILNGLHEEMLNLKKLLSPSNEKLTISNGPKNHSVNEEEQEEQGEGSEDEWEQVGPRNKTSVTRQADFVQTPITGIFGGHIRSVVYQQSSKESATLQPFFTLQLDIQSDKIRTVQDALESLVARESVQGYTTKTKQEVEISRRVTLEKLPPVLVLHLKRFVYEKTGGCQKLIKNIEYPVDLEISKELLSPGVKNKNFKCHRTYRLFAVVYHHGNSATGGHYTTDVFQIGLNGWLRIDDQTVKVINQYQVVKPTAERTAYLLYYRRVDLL

In turn, `CC1=C[C@H](C)C[C@H](C)[C@H](Cc2cnco2)OC(=O)/C(C)=C\[C@H](C)C[C@H](C)[C@H](Cc2cnco2)OC1=O` [F806, FW-04-806] showed a Kd at USP10 of roughly 27.5 µM.

B1: His-ANLN amino acids 1-454 (domain or fragment, human, UniProt Q9NQW6 1-454, looked up)
chain: MDPFTEKLLERTRARRENLQRKMAERPTAAPRSMTHAKRARQPLSEASNQQPLSGGEEKSCTKPSPSKKRCSDNTEVEVSNLENKQPVESTSAKSCSPSPVSPQVQPQAADTISDSVAVPASLLGMRRGLNSRLEATAASSVKTRMQKLAEQRRRWDNDDMTDDIPESSLFSPMPSEEKAASPPRPLLSNASATPVGRRGRLANLAATICSWEDDVNHSFAKQNSVQEQPGTACLSKFSSASGASARINSSSVKQEATFCSQRDGDASLNKALSSSADDASLVNASISSSVKATSPVKSTTSITDAKSCEGQNPELLPKTPISPLKTGVSKPIVKSTLSQTVPSKGELSREICLQSQSKDKSTTPGGTGIKPFLERFGERCQEHSKESPARSTPHRTPIITPNTKAIQERLFKQDTSSSTTHLAQQLKQERQKELACLRGRFDKGNIWSAEKGG
notes: also called His-ANLN mutant
B1: the binding result with recombinant GST-USP10 is given as “binds”.
